Test results as given in patent US20130053435A1, “Methods of Treating Alcohol Intoxication, Alcohol Use Disorders and Alcohol Abuse Which Comprises the Administration of Dihydromyricetin” (priority 2011, published 2013).

Columns and labels:
[1] = test system: EtOH withdrawal-induced tolerance in rats; test: EtOH withdrawal-induced tolerance measured by acute EtOH-induced LORR; format: in vivo, rat; conditions: for LORR duration after 48 hr withdrawal: test EtOH 3 g/kg i.p.; for acute EtOH-induced LORR after 48 hr withdrawal: FIG. 12B
Protocol: See Kakihana R, et al. (1966) Science 154(756):1574-1575). […] LORR duration ended when the animal was able to flip over three times in 30 s. LORR assays were blindly performed. LORR durations were reported as mean (min)±SEM.
After a 48 hr withdrawal period, EtOH-induced LORR assays (EtOH, 3 g/kg, i.p.) were performed.
48 hr after injection, rats were sub-divided into 3 groups to measure signs of EtOH withdrawal.
Tolerance to EtOH was measured with acute EtOH-induced LORR (in minutes, FIG. 12B). EtOH induced 63.6±7.0 LORR in the vehicle group subjects as compared to 10.8±3.8 LORR in EtOH group subjects.

[2] = Metabolic studies in rats; format: in vivo, rat; conditions: DHM oral administration, 1 mg/kg
[3] = test system: GABAARs; test: Whole-cell patch-clamp, cultured hippocampal neurons 24 h after EtOH/DHM exposure; format: cell-based, rat; conditions: 24 h withdrawal
Protocol: Control neurons were treated with corresponding vehicle as same procedure as EtOH-treated neurons. The concentration of 60 mM EtOH was selected in view of prior experiments. See Liang J et al (2007). Specifically, the concentration of 60 mM EtOH used to treat cultured neurons was chosen to match blood levels measured in adult rats after intoxication with gavage of 5 g/kg, which produced about 60 mM blood peak plasma [EtOH] lasting for about 2 to 3 hr and induced significant plasticity in GABAARs and tolerance.
Then, immediately before electrophysiological recording, cells grown on coverslips were transferred to a perfusion chamber (Warner Instruments) and visualized with an inverted microscope (TE200, Nikon). Whole-cell patch-clamp recordings were obtained from cultured neurons under voltage-clamp mode at room temperature (22-25° C.), at a holding potential of −70 mV. Cells were perfused with an extracellular solution (137 mM NaCl, 5 mM KCl, 2 mM CaCl2, 1 mM MgCl2, 20 mM glucose and 10 mM HEPES (310-320 Osm, pH adjusted to 7.40 with NaOH)). Glass pipettes were filled with the same internal solution as that in slice recordings, with an input resistance of 4-7 MΩ. GABAAR-mediated mIPSCs were recorded using the same pharmacological method as mentioned above. […] Electrical signals were amplified using a Multiclamp 200 B amplifier (Molecular Devices, USA). After establishing the whole-cell configuration, at least 10 min were allowed to elapse before the application of drug to allow the membrane patch to stabilize and exchange of ions between the recording electrode and the cytosol to occur. Data were acquired with pClamp software (Version 10.0, Molecular Devices, USA), digitized at 20 kHz (Digidata 1440A, Molecular Devices), and analyzed using the Clampfit software (Version 10.0, Molecular Devices) and the Mini Analysis Program (versions 6.0.7, Synaptosoft, Decatur, Ga.) using methods known in the art. See Hamann M, et al. (2002) Neuron 33(4):625-633; Stell B M and Mody I (2002) J Neurosci 22(10): RC223; and Liang (2007).

[4] = test system: GABAAR α4 subunit; test: Western blot of hippocampal tissue after 48 hr withdrawal; format: in vivo, rat
Protocol: Parallel Western blots from rat hippocampus were examined to determine whether EtOH induced changes in total protein of GABAAR α4 subunits. Hippocampal tissues from rats were lysed in RIPA-buffer containing 1% Triton X-100, 0.1% sodium dodecyl sulfate (SDS), 50 mM Na3PO4, 150 mM NaCl, 2 mM EDTA, 50 mM NaF, 10 mM sodium pyrophosphate, 1 mM sodium orthovanadate, 1 mM phenylmethylsulfonyl fluoride (PMSF) and Complete protease inhibitor cocktail (Roche). The lysate was centrifuged for 15 min (14,000×g, 4° C.) and the supernatant collected for Western blot analysis. Western blots were performed using rabbit anti-GABAAR α4 (aa 379-421) and mouse anti-β-actin (Sigma) followed by HRP-conjugated secondary antibodies. Bands were detected using ECL detection kit (Amersham) and analyzed by densitometric measurements using ImageQuant 5.2 (Molecular Dynamics). Bands were stripped with buffer containing 62.5 mM Tris-HCl, 100 mM β-mercaptoethanol and 2% SDS (pH 6.7) and reprobed several times. Protein concentrations were determined with BCA Protein Assay Kit (Pierce) according to the manufacturer instructions.
The total protein content of GABAAR α4 subunit in hippocampus 48 hr after the above 4 treatments was assayed.

[5] = Plasma [EtOH] assay; format: in vivo, rat; conditions: two-bottle choice, E+D/water group, end of the fourth week
Protocol: See Liang (2007). The rat was put into a restraint tube and its tail was warm in about 40° C. The tail vein at the tip of the rail was punched with a sharp blade. Approximately 0.2 ml venous blood was dropped to a capillary blood collection tube containing lithium heparin (Ram Scientific Inc. Yonkers, N.Y.). Blood samples were centrifuged at 2500 rpm for 15 min. The supernatant was collected and stored at −80° C. until assay. The EtOH content of each blood sample was measured in duplicate along with EtOH standards using the alcohol oxidase reaction procedures (GM7 Micro-Stat; Analox Instruments, Lunenberg, Mass.).

[6] = test system: voluntary EtOH consumption in rats; test: Intermittent access two-bottle choice voluntary EtOH intake; format: in vivo, rat; conditions: for EtOH consumption: E+D/water sub-group switched after 4 weeks
Protocol: All fluids were presented in 100 ml graduated glass cylinders with stainless-steel drinking spouts inserted 15 min after the lights went off in the reversed light/dark cycle room. Bottles were weighed 30 min and 24 hrs after the fluids were presented. Each rat was weighed daily to monitor health and calculate the grams of ethanol intake per kilogram of body weight.
Sweetener (2 pk/L) was added to every bottle for the first week. Sweetener (1 pk/L) was added to every bottle for the second week. […] Rats had unlimited access to two bottles of water between the EtOH-access periods. The placement of the EtOH bottle was alternated each EtOH drinking session to control for side preferences. Rats were maintained on 20% EtOH intermittent access two-bottle choice paradigm for 7 weeks (21 EtOH-access sessions). […] The rest of the EtOH group continued EtOH-access sessions. EtOH consumption was expressed as grams of EtOH consumed per kilogram of body weight. Rats access to two bottles of water were taken as the control-group. There was no significant difference in body weight between the control and the EtOH-drinking rats at the end of the experiments.

[7] = neurons treated with EtOH 60 mM + DHM

In the case of O=C1c2c(O)cc(O)cc2O[C@H](c2cc(O)c(O)c(O)c2)[C@H]1O [DHM, (2R,3R)-3,5,7-trihydroxy-2-(3,4,5-trihydroxyphenyl)-2,3-dihydrochromen-4-one], the “LORR duration after 48 hr withdrawal” value ([1]; DHM 1 mg/kg i.p. alone) was 61 ± 4 min, the “acute EtOH-induced LORR after 48 hr withdrawal” value ([1]; DHM group) was 65.6 ± 8.4 min and the “acute EtOH-induced LORR after 48 hr withdrawal” value ([1]; EtOH+DHM (1 mg/kg) group) was 61.0 ± 3.8 min. The “LORR duration after 48 hr withdrawal” value ([1]; i.p. EtOH 3 g/kg + DHM 1 mg/kg 30 min after EtOH) was 61 ± 4 min, the “metabolic change (food and water intake, urine volume and stool volume)” value [2] was “no metabolic change” and the “GABAAR function after exposure/withdrawal” value ([3]; DHM alone exposure) was “did not alter GABAAR function”. The “Itonic magnitude after acute EtOH (60 mM)” value [3, 7] was 25.2±1.2 pA, the “averaged Itonic magnitude” value [3, 7] was 11.2±0.6 pA and the “mIPSC potentiation by EtOH” value [3, 7] was 8.3±9.4%. For the same molecule, the “total α4 subunit level” value ([4]; DHM group) was 88.3±10.3 % of control, the “total α4-protein level” value ([4]; EtOH+DHM group) was 93.0±21.0 % of control and the “plasma [EtOH] vs. E/water group” value [5] was “significantly lower”. It also gave an EtOH-intake ([6]; E+D/water group, DHM 0.05 mg/ml in 20% EtOH from start) of 2.6 ± 0.4 g/kg/day, an EtOH consumption ([6]; end of 6th week) of 1.2 ± 0.2 g/kg/day and an EtOH consumption ([6]; end of the 5th week) of 1.8 ± 1.0 g/kg/day.
